Molecules are shown by their SMILES.

Consider one compound from patent publication US10145848B2, “Small-molecule hydrophobic tagging of fusion proteins and induced degradation of same” (YALE UNIVERSITY, priority 2010, dated 2018).

Experiment [1] concerns the target T1, HA-HaloTag-H-RasG12V (Rhodococcus rhodochrous, UniProt P0A3G2, C176G/H272F/K175M/Y273L).
T1 construct: The HaloTag protein was obtained from pHT2 vector (Promega); H-Ras carrying G12V (fusion partner, same polypeptide); expressed in transfected cells; host or cells: NIH-3T3, retroviral infection (pEYK3.1)
Put plainly: Immunoblotting of HA-HaloTag-H-RasG12V in NIH-3T3 cells. Format: cell-based. Conditions: 1 μM, 24 hours. The protocol:
(a) NIH-3T3 cells were retrovirally infected with a construct expressing either HA-HaloTag-HRas(G12V) or HA-HaloTag(D106A)-HRas(G12V). The cells were then treated with vehicle or 1 μM HyT13 for 24 hours. The lysates were prepared for immunoblotting and the blots were probed with anti-HA and anti-β-actin antibodies. (b) One hundred thousand NIH-3T3 cells infected with HA-HaloTag-HRas(G12V) or HA-HaloTag(D106A)-HRas(G12V) were plated in 10% FBS containing medium onto 10-cm plates. The next day, the medium was replaced with 1% FBS containing medium, along with vehicle or 1 μM HyT13. The media was refreshed every 2 days, and the plates were pictured on day 6. Bar, 5 mm. (c) Quantification of foci as described in (b). The number of foci/cm^2 was counted from three separate plates, with error bars representing SEM. […] Tumor size was measured daily, and the tumor volume was calculated. […]
The indicated cells were washed twice with cold PBS and the cells were lysed in lysis buffer (1×PBS, 1% NP-40, 1 mM EDTA, 40 mM HEPES) with protease inhibitors. […] The total protein concentration was determined by Bradford assay and 50 μg of protein was loaded onto an 8% Bis-Tris gel. […] The blots were processed by standard procedures with indicated antibodies, and the band intensities were quantified by ImageJ. […]

The test system of experiment [2] is NIH-3T3 cells expressing HA-HaloTag-H-RasG12V. Description: Tumor formation assay in nude mice. The format is in vivo. The following applies: 25 mg/kg or 100 mg/kg daily IP. The protocol:
One hundred thousand NIH-3T3 cells expressing HA-HaloTag-H-RasG12V were injected into the flank of anesthetized 6-week old female nu/nu nude mice (Charles River Laboratories). Two hours later, the mice were IP injected with either vehicle (10 μl, volume, with 5 μl, DMSO and 5 μl, of Cremophor EL), 25 mg/kg HyT13 or 100 mg/kg HyT13. The drug injections continued daily until the end of the experiment. Upon the appearance of tumors on day 7, the tumors were measured daily with calipers, and their volumes were calculated using the formula: a(b)^2/2, where a and b represent the longest and shortest diameters of the tumor, respectively.
To examine whether the HaloTag:HyT13 based system could be used in mouse models to relieve the H-RasG12V-driven tumor burden, we first evaluated the pharmacokinetics of HyT13. We performed a maximum tolerated dose experiment with HyT13 in nude mice at doses up to 100 mg/kg over a 14-day treatment regimen. […] Next, we sought to determine the serum bioavailability of HyT13 following injections. HyT13 was administered at 25 mg/kg by intraperitoneal (IP) injection into Swiss Webster mice and the serum was collected at 1 and 24 hours post-injection. At 1 hour post HyT13 administration the blood serum concentration was approximately 2 μM, and by 24 hours the HyT13 concentration had dropped to about 500 nM (FIG. 10). […]

`O=C(CC12CC3CC(CC(C3)C1)C2)NCCOCCOCCCCCCCl` [HyT13, 2-((3r,5r,7r)-Adamantan-1-yl)-N-(2-(2-((6-chlorohexyl)oxy)ethoxy)ethyl)acetamide]: the “degradation of HA-HaloTag-H-RasG12V” value in experiment [1] is “readily degraded”. For the same compound, in experiment [2], the “tumor size relative to vehicle treated mice (times smaller)” value was determined as 6 times.
